Among the data in patent US9073855B2, “BCL-2 selective apoptosis-inducing agents for the treatment of cancer and immune diseases” (AbbVie Inc., priority 2008, dated 2015) are Ki and EC50 values, retold here.

Test [1] concerns the target GST-Bcl-XL (Homo sapiens, UniProt Q07817). The experiment in a line: TR-FRET binding assay, GST-Bcl-XL with F-Bak peptide probe. The following applies: TR-FRET Binding Affinity, GST-Bcl-XL, F-Bak peptide probe. Summed up:
(§1)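 Compounds were serially diluted in DMSO from a 50 μM starting solution (2× the starting concentration; 10% DMSO). Plates were incubated for 3 h at room temperature, and TR-FRET was read with 340/35 nm excitation and emission at 520/525 nm (F-Bak) and 495/510 nm (Tb antibody). Ki values were calculated using Wang's competitive-binding equation.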
On the technique in general: TR-FRET usually uses a lanthanide donor and a delayed reading to cut background.

Test [2] addresses GST-Bcl-2 (Homo sapiens, UniProt P10415). The experiment in a line: TR-FRET binding assay, GST-Bcl-2 with F-Bak peptide probe. The following applies: TR-FRET Binding Affinity, GST-Bcl-2, F-Bak peptide probe. Summed up: as §1
Test [3] deals with FL5.12/Bcl-2 cells. The experiment in a line: FL5.12/Bcl-2 cell viability assay under IL-3 withdrawal (CellTitre Glo). It counts as cell-based, murine. The following applies: Mus musculus, IL-3 withdrawn 48 hrs, then 24 hrs with compound. The text has this: FL5.12 is an IL-3 dependent prolymphocytic murine cell line that undergoes apoptosis upon IL-3 withdrawal as a result of the upregulation of pro-apoptotic Bcl-2 proteins such as Bim and Puma. Stable overexpression of anti-apoptotic Bcl-2 protein (FL5.12/Bcl-2) protects against apoptosis induced by IL-3 withdrawal by sequestration of Bim and Puma. […] The ability of compounds to kill FL5.12/Bcl-2 cells upon IL-3 withdrawal is a direct measure of the compounds' ability to inhibit anti-apoptotic Bcl-2 protein function.
Wild type FL5.12/Bcl-2 overexpressing stable transfectants were cultured in RPMI-1640 supplemented with 2 mM L-glutamine, 10% FBS, 1 mM sodium pyruvate, 2 mM HEPES, 1% penicillin/streptomycin (Invitrogen), 57 μM β-ME, and 10% WEHI-3B conditioned medium (source of IL-3) and maintained at 37° C. containing 5% CO2. 1×10^6 cells/ml were washed 1×PBS and resuspended in medium not supplemented with 10% WEHI-3B for 48 hrs prior to cytotoxicity assays. Cells were then treated for an additional 24 hrs in the presence of various concentrations of the indicated compounds. Cell viability was assessed by CellTitre Glo assay (Promega Corp.) according to the manufacturer's recommendations.

Each structure is given as a SMILES string.

GST-Bcl-2, sequence (P10415 whole entry): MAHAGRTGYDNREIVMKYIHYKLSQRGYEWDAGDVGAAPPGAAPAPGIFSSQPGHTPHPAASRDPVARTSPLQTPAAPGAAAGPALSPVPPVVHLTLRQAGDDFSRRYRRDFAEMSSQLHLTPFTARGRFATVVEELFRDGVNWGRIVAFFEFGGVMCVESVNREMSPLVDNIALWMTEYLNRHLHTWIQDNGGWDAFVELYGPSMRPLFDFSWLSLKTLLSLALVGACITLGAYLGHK
GST-Bcl-XL, sequence (Q07817 whole entry): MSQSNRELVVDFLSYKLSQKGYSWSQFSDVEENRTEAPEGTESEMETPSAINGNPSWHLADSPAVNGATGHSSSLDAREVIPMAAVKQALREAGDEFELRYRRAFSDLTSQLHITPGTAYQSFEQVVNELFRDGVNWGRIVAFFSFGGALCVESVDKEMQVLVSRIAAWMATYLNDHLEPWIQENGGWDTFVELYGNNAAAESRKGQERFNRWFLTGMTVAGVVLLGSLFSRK

For the compound `CC1(C)CCC(CN2CCN(c3ccc(C(=O)NS(=O)(=O)c4ccc(NC5CCN(C6CCOCC6)CC5)c([N+](=O)[O-])c4)c(Oc4ccc5[nH]ccc5c4)c3F)CC2)=C(c2ccc(Cl)cc2)C1` [Example 185, 4-(4-{[2-(4-chlorophenyl)-4,4-dimethylcyclohex-1-en-1-yl]methyl}piperazin-1-yl)-3-fluoro-2-(1H-indol-5-yloxy)-N-({3-nitro-4-[(1-tetrahydro-2H-pyran-4-ylpiperidin-4-yl)amino]phenyl}sulfonyl)benzamide], the values for the Ki in test [1] and in test [2] were 82.6 nM and 0.228 nM, respectively. In test [3], the EC50 – broadly, the concentration at which the effect is half-maximal – is 63.4 nM.

`CN1CCC(O)(CNc2ccc(S(=O)(=O)NC(=O)c3ccc(N4CCN(CC5=C(c6ccc(Cl)cc6)CC(C)(C)CC5)CC4)cc3Oc3cccc4[nH]ccc34)cc2[N+](=O)[O-])CC1` [Example 186, 4-(4-{[2-(4-chlorophenyl)-4,4-dimethylcyclohex-1-en-1-yl]methyl}piperazin-1-yl)-N-[(4-{[(4-hydroxy-1-methylpiperidin-4-yl)methyl]amino}-3-nitrophenyl)sulfonyl]-2-(1H-indol-4-yloxy)benzamide]: the Ki (as a rule, a dissociation constant, usually derived from enzyme kinetics or from competition with a known ligand) was found to be 11.2 nM in test [1] and 0.01 nM in test [2]. In addition, the EC50 in test [3] is 20.4 nM.

For the compound `CC1(C)CCC(CN2CCN(c3ccc(C(=O)NS(=O)(=O)c4ccc(N[C@@H]5CCN(Cc6ccccc6)C[C@@H]5O)c([N+](=O)[O-])c4)c(Oc4ccc5[nH]ccc5c4)c3)CC2)=C(c2ccc(Cl)cc2)C1` [Example 187, N-[(4-{[(3S,4R)-1-benzyl-3-hydroxypiperidin-4-yl]amino}-3-nitrophenyl)sulfonyl]-4-(4-{[2-(4-chlorophenyl)-4,4-dimethylcyclohex-1-en-1-yl]methyl}piperazin-1-yl)-2-(1H-indol-5-yloxy)benzamide], the figures for the Ki in test [1] and in test [2] were > 660 nM and 0.329 nM, respectively. The EC50 in test [3] stood at 341 nM.

As for `CC1(C)CCC(CN2CCN(c3ccc(C(=O)NS(=O)(=O)c4ccc(NCC5(N)CCOCC5)c([N+](=O)[O-])c4)c(Oc4ccc5[nH]ccc5c4)c3)CC2)=C(c2ccc(Cl)cc2)C1` [Example 188, N-[(4-{[(4-aminotetrahydro-2H-pyran-4-yl)methyl]amino}-3-nitrophenyl)sulfonyl]-4-(4-{[2-(4-chlorophenyl)-4,4-dimethylcyclohex-1-en-1-yl]methyl}piperazin-1-yl)-2-(1H-indol-5-yloxy)benzamide], the results for the Ki in test [1] and in test [2] were 115 nM and 0.102 nM, respectively. Further, the EC50 in test [3] is 24.7 nM.

Turning to `COCCN1CCC(Nc2ccc(S(=O)(=O)NC(=O)c3ccc(N4CCN(CC5=C(c6ccc(Cl)cc6)CC(C)(C)CC5)CC4)cc3Oc3ccc4[nH]ccc4c3)cc2[N+](=O)[O-])CC1` [Example 189, 4-(4-{[2-(4-chlorophenyl)-4,4-dimethylcyclohex-1-en-1-yl]methyl}piperazin-1-yl)-2-(1H-indol-5-yloxy)-N-[(4-{[1-(2-methoxyethyl)piperidin-4-yl]amino}-3-nitrophenyl)sulfonyl]benzamide], the results for the Ki in test [1] and in test [2] were 51.7 nM and 0.144 nM, respectively. In addition, the concentration giving a half-maximal response (EC50) in test [3] is 14.9 nM.

Regarding `CN1CCN(Nc2ccc(S(=O)(=O)NC(=O)c3ccc(N4CCN(CC5=C(c6ccc(Cl)cc6)CC(C)(C)CC5)CC4)cc3Oc3cccc4[nH]ccc34)cc2[N+](=O)[O-])CC1` [Example 190, 4-(4-{[2-(4-chlorophenyl)-4,4-dimethylcyclohex-1-en-1-yl]methyl}piperazin-1-yl)-2-(1H-indol-4-yloxy)-N-({4-[(4-methylpiperazin-1-yl)amino]-3-nitrophenyl}sulfonyl)benzamide], the Ki turned out to be 97.1 nM in test [1] and 0.512 nM in test [2]. Also, the EC50 in test [3] was 24.2 nM.

Consider `CC1(C)CCC(CN2CCN(c3ccc(C(=O)NS(=O)(=O)c4ccc(NC5CCN(CCO)CC5)c([N+](=O)[O-])c4)c(Oc4cccc5[nH]ccc45)c3)CC2)=C(c2ccc(Cl)cc2)C1` [Example 191, 4-(4-{[2-(4-chlorophenyl)-4,4-dimethylcyclohex-1-en-1-yl]methyl}piperazin-1-yl)-N-[(4-{[1-(2-hydroxyethyl)piperidin-4-yl]amino}-3-nitrophenyl)sulfonyl]-2-(1H-indol-4-yloxy)benzamide], for which the Ki in test [1] was determined as 9.16 nM; in test [2] it was 0.073 nM. Besides, the EC50 in test [3] worked out at 11.7 nM.

On to `COCCN1CCC(Nc2ccc(S(=O)(=O)NC(=O)c3ccc(N4CCN(CC5=C(c6ccc(Cl)cc6)CC(C)(C)CC5)CC4)cc3Oc3cccc4[nH]ccc34)cc2[N+](=O)[O-])CC1` [Example 194, 4-(4-{[2-(4-chlorophenyl)-4,4-dimethylcyclohex-1-en-1-yl]methyl}piperazin-1-yl)-2-(1H-indol-4-yloxy)-N-[(4-{[1-(2-methoxyethyl)piperidin-4-yl]amino}-3-nitrophenyl)sulfonyl]benzamide], for which the Ki was determined as 32 nM in test [1] and 0.151 nM in test [2]. Besides, the EC50 in test [3] is 27 nM.

For `CC1(C)CCC(CN2CCN(c3ccc(C(=O)NS(=O)(=O)c4ccc(NC5CCN(CCCO)CC5)c([N+](=O)[O-])c4)c(Oc4cccc5[nH]ccc45)c3)CC2)=C(c2ccc(Cl)cc2)C1` [Example 195, 4-(4-{[2-(4-chlorophenyl)-4,4-dimethylcyclohex-1-en-1-yl]methyl}piperazin-1-yl)-N-[(4-{[1-(3-hydroxypropyl)piperidin-4-yl]amino}-3-nitrophenyl)sulfonyl]-2-(1H-indol-4-yloxy)benzamide], the values for the Ki in test [1] and in test [2] were 6.71 nM and 0.039 nM, respectively. For the same compound, the EC50 in test [3] came to 11.2 nM.

Consider `CN(C)CCCc1cccc(-c2ccc(Cl)cc2)c1CN1CCN(c2ccc(C(=O)NS(=O)(=O)c3ccc(NCC4CCOCC4)c([N+](=O)[O-])c3)c(Oc3cccc4[nH]ccc34)c2)CC1` [Example 196, 4-[4-({4′-chloro-3-[3-(dimethylamino)propyl]-1,1′-biphenyl-2-yl}methyl)piperazin-1-yl]-2-(1H-indol-4-yloxy)-N-({3-nitro-4-[(tetrahydro-2H-pyran-4-ylmethyl)amino]phenyl}sulfonyl)benzamide], for which the values for the Ki in test [1] and in test [2] were > 660 nM and 0.032 nM, respectively. The EC50 in test [3] turned out to be 12.4 nM.

Regarding `CC1(C)CCC(CN2CCN(c3ccc(C(=O)NS(=O)(=O)c4ccc(NC5CCN(CCCO)CC5)c([N+](=O)[O-])c4)c(Oc4ccc5[nH]ccc5c4)c3)CC2)=C(c2ccc(Cl)cc2)C1` [Example 197, 4-(4-{[2-(4-chlorophenyl)-4,4-dimethylcyclohex-1-en-1-yl]methyl}piperazin-1-yl)-N-[(4-{[1-(3-hydroxypropyl)piperidin-4-yl]amino}-3-nitrophenyl)sulfonyl]-2-(1H-indol-5-yloxy)benzamide], the Ki in test [1] turned out to be 4.84 nM; in test [2] it was 0.025 nM. Moreover, the EC50 in test [3] is 6.18 nM.

In the case of `CN(C)CCOc1cccc(-c2ccc(Cl)cc2)c1CN1CCN(c2ccc(C(=O)NS(=O)(=O)c3ccc(NC4CCN(C5CCOCC5)CC4)c([N+](=O)[O-])c3)c(Oc3cccc4[nH]ccc34)c2)CC1` [Example 199, 4-[4-({4′-chloro-3-[2-(dimethylamino)ethoxy]-1,1′-biphenyl-2-yl}methyl)piperazin-1-yl]-2-(1H-indol-4-yloxy)-N-({3-nitro-4-[(1-tetrahydro-2H-pyran-4-ylpiperidin-4-yl)amino]phenyl}sulfonyl)benzamide], the values for the Ki in test [1] and in test [2] were 5.23 nM and 0.014 nM, respectively. Besides, in test [3], the EC50 was determined as 28.5 nM.

As for `CCN(CC)C1CCC(Nc2ccc(S(=O)(=O)NC(=O)c3ccc(N4CCN(CC5=C(c6ccc(Cl)cc6)CC(C)(C)CC5)CC4)cc3Oc3ccc4[nH]ccc4c3)cc2[N+](=O)[O-])CC1` (stereo not drawn) [Example 201, 4-(4-{[2-(4-chlorophenyl)-4,4-dimethylcyclohex-1-en-1-yl]methyl}piperazin-1-yl)-N-[(4-{[4-(diethylamino)cyclohexyl]amino}-3-nitrophenyl)sulfonyl]-2-(1H-indol-5-yloxy)benzamide], the Ki was 24.6 nM in test [1] and 0.125 nM in test [2]. Further, the EC50 in test [3] came out at 17.4 nM.

`CN(C)C1CCC(Nc2ccc(S(=O)(=O)NC(=O)c3ccc(N4CCN(CC5=C(c6ccc(Cl)cc6)CC(C)(C)CC5)CC4)cc3Oc3cccc4[nH]ccc34)cc2[N+](=O)[O-])CC1` (stereo not drawn) [Example 202, 4-(4-{[2-(4-chlorophenyl)-4,4-dimethylcyclohex-1-en-1-yl]methyl}piperazin-1-yl)-N-[(4-{[4-(dimethylamino)cyclohexyl]amino}-3-nitrophenyl)sulfonyl]-2-(1H-indol-4-yloxy)benzamide]: the Ki in test [1] was 5.07 nM; in test [2], 0.052 nM. The EC50 in test [3] turned out to be 13.8 nM.
